Measurements published in patent US5503843A, “Transdermal delivery of alpha adrenoceptor blocking agents” (priority 1994, dated 1996).
In brackets after ≈: the same amount, converted by molar mass. Read-outs that look alike come from different tables or passages of the source.

What was measured:
[1] = cited from earlier work
[2] = system: alpha1 A and alpha1 B adrenoceptors; settings: Michel et al.; cited from earlier work
[3] = system: smooth muscle originating from the trigone muscle at the base of the bladder; settings: trigone smooth muscle preparations; cited from earlier work
[4] = pKa of alpha blockers (Table 1); format: physicochemical
Text: However, the solubility improvement largely depends on the choice of solvent, any specific common ion interaction and the size and polarity of the counterion. Often, salts prepared from strong acids are freely soluble in water. […] Suitable alkane- or arenesulfonic acid anions include […], tosylate (para-toluenesulfonate), mesylate (methanesulfonate), napsylate (1-napthalene-2-sulfonate), besylate (benzene sulfonate) and […].

rabbit trigone = settings: in vitro; cited from earlier work
[5] = system: rabbit urethral ring tissues; settings: in vitro; cited from earlier work
[6] = in vivo; cited from earlier work
[7] = Solubility of Rec 15/2739 free base in various vehicles (Table 2); format: physicochemical
Procedure: Table 2 provides the solubility of the free base forms of the alpha blocker Rec 15/2739 in various vehicles. Solubility of free base is indicated as μg per ml of medium. PBS indicates phosphate buffered saline (20 mM phosphate and 0.9% NaCl).

[8] = system: alpha1 adrenergic receptors; settings: WO93/17007; cited from earlier work
[9] = system: mammalian lower urinary tract; settings: in vivo; cited from earlier work
rat bladder strip = settings: WO93/17007; cited from earlier work
[10] = system: guinea pig prostrate, urethra, and vesical triangle; settings: Honda et al.; cited from earlier work
[11] = system: rabbit prostrate, urethra, and vesical triangle; settings: Honda et al.; cited from earlier work
[12] = system: human urethra and vesical triangle; settings: Honda et al.; cited from earlier work

For COc1cc2nc(N(C)CCCNC(=O)C3CCCO3)nc(N)c2cc1OC (stereo not drawn) [Alfuzosin, N-3-(4-Amino-6,7dimethoxy-2-quinazolinyl) methylamino!propyl!tetrahydro-2-furancarboxamide], the plasma half life ([1]; S. Lieto di Priolo et al.) is listed as 4 to 9 h, the mean oral bioavailability ([1]; oral, Wilde et al.) is listed as 64% and the “selectivity for alpha1 subtypes” value [2] is listed as “lacks any relevant selectivity for alpha1 subtypes”. For the same molecule, the “activity in altering phenylephrine induced contractions” value [3] was “shows activity in altering the phenylephrine induced contractions”.
In the case of COc1cc2nc(N3CCN(C(=O)C4CCCO4)CC3)nc(N)c2cc1OC (stereo not drawn) [Terazosin, reference compound], the pKa [4] is reported as 7.1.
In the case of COc1cc2nc(N(C)CCCNC(=O)[C@@H]3CCCO3)nc(N)c2cc1OC [S enantiomer], the “potency in antagonizing phenylephrine induced contraction (R vs S enantiomer)” value (from here on “potency … (R vs S enantiomer)”) (rabbit trigone) is given as “equally potent” and the “potency … (R vs S enantiomer)” value [5] is given as “equally potent”.
For COc1cc2nc(N(C)CCCNC(=O)[C@H]3CCCO3)nc(N)c2cc1OC [R enantiomer], the “potency … (R vs S enantiomer)” value (rabbit trigone) is given as “equally potent” and the “potency … (R vs S enantiomer)” value [5] is given as “equally potent”.
In the case of COc1cc2nc(N3CCN(C(=O)c4ccco4)CC3)nc(N)c2cc1OC [Prazosin, reference compound], the “most common side effect” value [6] is listed as “hypotension”.
Work on COc1ccccc1N1CCN(CCCNC(=O)c2cccc3c(=O)c(C)c(-c4ccccc4)oc23)CC1 [Rec 15/2739, 8(3-4-(2-methoxyphenyl)-1-piperazinyl!-propylcarbamoyl)-3-methyl-4-oxo-2-phenyl-4H-1-benzopyran] yielded a solubility ([7]; aqueous buffer, PBS pH 5.2) of 68 µg/mL (≈ 133 µM), a solubility ([7]; aqueous buffer, PBS pH 6.7) of 5.2 µg/mL (≈ 10.2 µM) and a solubility ([7]; saline) of 1.5 µg/mL (≈ 2.93 µM). The pKa ([4]; read-out: pKa) was 7, the “affinity and selectivity for alpha1 adrenergic receptors” value [8] was “has affinity and selectivity for the alpha1 adrenergic receptors” and the “selectivity for lower urinary tract (urethral contractions vs lowering blood pressure)” value [9] was “substantially more active in antagonizing urethral contractions than in lowering blood pressure”. The toxicity [6] was “low toxicity” and the “antagonistic effects against contractions induced by potassium chloride” value (rat bladder strip) was “demonstrate antagonistic effects against contractions of rat bladder strip induced by potassium chloride”.
In the case of CCOc1ccccc1OCCNC(C)Cc1ccc(OC)c(S(N)(=O)=O)c1 (stereo not drawn) [Tamsulosin, 5-2-2-(o-Ethoxyphenoxy)-ethyl!amino!propyl!-2-methoxybenzenesulfonamide], the reduction of contraction [10] is listed as “reduces the contraction”, the reduction of contraction [11] is listed as “reduces the contraction” and the reduction of contraction [12] is listed as “reduces the contraction”.
